US20240067631A1, “PYRAZOLE DERIVATIVES USEFUL AS NAMPT MODULATORS” (Cytokinetics, Inc., priority 2020, published 2024)

How the values were obtained:
human NAMPT = human NAMPT (Homo sapiens (Human), UniProt P43490); assay: Human recombinant enzyme assay (NMN fluorescence biochemical assay); details: 6 nM human NAMPT, 60 min; for AC1.4 Human: concentration of compound that generates 40% higher activity over basal; for EC50: concentration that gives half-maximal activation
Method in brief: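 Recombinant human NAMPT (6 nM) with 2.5 mM ATP, […] PRPP and […] nicotinamide in HEPES pH 7.2 with DTT, CHAPS, NaCl, MgCl2; 60 min at ambient temperature. NMN derivatised with acetophenone/KOH/formic acid, fluorescence read at 355/460 nm. AC1.4 (40% above basal) and EC50 reported.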

endogenous NAMPT = endogenous NAMPT (Homo sapiens (Human), UniProt P43490); assay: Cellular NAD+ modulation assay in SH-SY5Y cells with doxorubicin; format: cell-based; details: Neuroblastoma SH-SY5Y cells, 40 hours, cellular NAD levels; for EC50: read-out: SY5Y (human) NAD Cell Dox EC50
Method: The compounds described herein were also assayed for their ability to stimulate the endogenous NAMPT in a native cellular environment in the cellular NAD+ modulation assay, which measures the ability of the compound to modulate cellular NAD levels. Increased levels of NAD are expected by compounds that permeate the cells and activate the catalytic activity of the endogenous NAMPT.
Neuroblastoma SH-SY5Y cells were grown in 1:1 mixture of Eagle's Minimum Essential Medium and F12 Medium, along with 10% fetal bovine serum, in a humidified incubator with an atmosphere of 95% air and 5% CO2 at 37° C. The assays were initiated by plating 20 μL of SH-SY5Y cells in culture medium with 0.1% fetal bovine serum, at a density of 5000 cells per well to a 384-well Corning™ BioCoat™ Poly-D-Lysine Multiwell Plates. The plates were incubated in the 37° C. incubators for a period of 5 hours. Compounds in DMSO were added to the plates in a volume of 120 nL using the Labcyte Echo Liquid Handlers. 5 μL of a 1.5 uM Doxorubicin solution in assay medium is added to each well. The plates are then incubated for 40 hours. 30 μL of a readout-solution containing 0.2 U/mL Diaphorase enzyme, 40 uM resazurin, 10 uM FMN, 0.8 U/mL Alcohol dehydrogenase, 3% ethanol, 0.4 mg/mL bovine serum albumin, 0.2% Triton X-100 in 100 mM Tris-HCl, 30 mM EDTA, pH 8.4. The plates were read for fluorescence (Excitation/Emission=540 nm/590 nm) using an EnVision plate reader after 60 mins of incubation at ambient temperature.

endogenous NAMPT, sequence (P43490 whole entry): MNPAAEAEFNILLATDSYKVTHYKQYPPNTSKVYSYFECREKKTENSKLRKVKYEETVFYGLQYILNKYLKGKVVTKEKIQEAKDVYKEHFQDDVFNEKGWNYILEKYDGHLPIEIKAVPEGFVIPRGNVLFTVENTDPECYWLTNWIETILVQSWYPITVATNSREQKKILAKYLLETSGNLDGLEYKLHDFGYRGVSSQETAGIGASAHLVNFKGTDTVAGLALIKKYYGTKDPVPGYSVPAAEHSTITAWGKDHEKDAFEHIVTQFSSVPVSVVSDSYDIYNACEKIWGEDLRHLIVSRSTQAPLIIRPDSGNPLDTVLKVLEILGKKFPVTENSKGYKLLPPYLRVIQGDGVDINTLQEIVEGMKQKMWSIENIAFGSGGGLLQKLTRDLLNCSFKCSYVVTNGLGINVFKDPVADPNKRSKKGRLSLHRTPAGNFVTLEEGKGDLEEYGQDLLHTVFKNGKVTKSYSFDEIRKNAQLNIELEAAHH
human NAMPT, sequence (P43490 whole entry): as above

Cc1nc(C(=O)N2CCC[C@@H]2c2cccc(F)c2)nc(NCCc2cn[nH]c2)c1C [Compound 15, (R)-(4-((2-(1H-pyrazol-4-yl)ethyl)amino)-5,6-dimethylpyrimidin-2-yl)(2-(3-fluorophenyl)pyrrolidin-1-yl)methanone]
AC1.4 Human (human NAMPT): 0.051 µM
EC50 (human NAMPT): 390 nM
SY5Y (human) NAD Cell Dox AC0.3 (endogenous NAMPT): 0.26 µM
EC50 (endogenous NAMPT): 190 nM

Cc1nc(C(=O)N[C@H](C)c2cccs2)nc(NCCc2cn[nH]c2)c1C [Compound 14, (R)-4-((2-(1H-pyrazol-4-yl)ethyl)amino)-5,6-dimethyl-N-(1-(thiophen-2-yl)ethyl)pyrimidine-2-carboxamide]
AC1.4 Human (human NAMPT): 0.054 µM
EC50 (human NAMPT): 156 nM
SY5Y (human) NAD Cell Dox AC0.3 (endogenous NAMPT): 0.28 µM
EC50 (endogenous NAMPT): 480 nM

Cc1nc(C(=O)N2CCOC[C@H]2c2ccccc2)nc(NCCc2cn[nH]c2)c1C [Compound 16, (R)-(4-((2-(1H-pyrazol-4-yl)ethyl)amino)-5,6-dimethylpyrimidin-2-yl)(3-phenylmorpholino)methanone]
AC1.4 Human (human NAMPT): 0.0585 µM
EC50 (human NAMPT): 621 nM
SY5Y (human) NAD Cell Dox AC0.3 (endogenous NAMPT): 0.41 µM
EC50 (endogenous NAMPT): 330 nM

Cc1nc(C(=O)NCC(C)(C)c2cccc(F)c2)nc(NCCc2cn[nH]c2)c1C [Compound 27, 4-((2-(1H-pyrazol-4-yl)ethyl)amino)-N-(2-(3-fluorophenyl)-2-methylpropyl)-5,6-dimethylpyrimidine-2-carboxamide]
AC1.4 Human (human NAMPT): 0.1305 µM
EC50 (human NAMPT): 1630 nM
SY5Y (human) NAD Cell Dox AC0.3 (endogenous NAMPT): 0.28 µM
EC50 (endogenous NAMPT): 740 nM

Cc1nc(C(=O)N2CCOCC2c2cccc(F)c2)nc(NCCc2cn[nH]c2)c1C (centres unmarked) [Compound 7, (4-((2-(1H-pyrazol-4-yl)ethyl)amino)-5,6-dimethylpyrimidin-2-yl)(3-(3-fluorophenyl)morpholino)methanone]
AC1.4 Human (human NAMPT): 0.029 µM
EC50 (human NAMPT): 326 nM
SY5Y (human) NAD Cell Dox AC0.3 (endogenous NAMPT): 0.19 µM
EC50 (endogenous NAMPT): 190 nM

Cc1nc(C(=O)N2CCNCC2c2cccc(F)c2)nc(NCCc2cn[nH]c2)c1C (centres unmarked) [Compound 24, (4-((2-(1H-pyrazol-4-yl)ethyl)amino)-5,6-dimethylpyrimidin-2-yl)(2-(3-fluorophenyl)piperazin-1-yl)methanone]
AC1.4 Human (human NAMPT): 0.0955 µM
EC50 (human NAMPT): 770 nM
SY5Y (human) NAD Cell Dox AC0.3 (endogenous NAMPT): 2.49 µM
EC50 (endogenous NAMPT): 2260 nM

Cc1nc(C(=O)N2CCC[C@@H]2c2cccc(Cl)c2)nc(NCCc2cn[nH]c2)c1C [Compound 13, (R)-(4-((2-(1H-pyrazol-4-yl)ethyl)amino)-5,6-dimethylpyrimidin-2-yl)(2-(3-chlorophenyl)pyrrolidin-1-yl)methanone]
AC1.4 Human (human NAMPT): 0.035 µM
EC50 (human NAMPT): 3740 nM
SY5Y (human) NAD Cell Dox AC0.3 (endogenous NAMPT): 0.24 µM
EC50 (endogenous NAMPT): 230 nM

Cc1nc(C(=O)N[C@H](C)c2cccc(F)n2)nc(NCCc2cn[nH]c2)c1Cl [Compound 147, (R)-4-((2-(1H-pyrazol-4-yl)ethyl)amino)-5-chloro-N-(1-(6-fluoropyridin-2-yl)ethyl)-6-methylpyrimidine-2-carboxamide]
AC1.4 Human (human NAMPT): <0.003 µM
SY5Y (human) NAD Cell Dox AC0.3 (endogenous NAMPT): 0.02 µM

Cc1nc(C(=O)NC(c2cccc(F)c2)c2ncco2)nc(NCCc2cn[nH]c2)c1C (centres unmarked) [Compound 23, 4-((2-(1H-pyrazol-4-yl)ethyl)amino)-N-((3-fluorophenyl)(oxazol-2-yl)methyl)-5,6-dimethylpyrimidine-2-carboxamide]
AC1.4 Human (human NAMPT): 0.0955 µM
EC50 (human NAMPT): 3240 nM
SY5Y (human) NAD Cell Dox AC0.3 (endogenous NAMPT): 1.57 µM
EC50 (endogenous NAMPT): 3250 nM

Cc1nc(C(=O)N[C@H](C)c2ccccc2)nc(NCCc2cn[nH]c2)c1C [Compound 17, (R)-4-((2-(1H-pyrazol-4-yl)ethyl)amino)-5,6-dimethyl-N-(1-phenylethyl)pyrimidine-2-carboxamide]
AC1.4 Human (human NAMPT): 0.0715 µM
EC50 (human NAMPT): 549 nM
SY5Y (human) NAD Cell Dox AC0.3 (endogenous NAMPT): 0.24 µM
EC50 (endogenous NAMPT): 440 nM

Cc1nc(C(=O)N(C)C(c2cccc(F)c2)c2nccn2C)nc(NCCc2cn[nH]c2)c1C (centres unmarked) [Compound 5, 4-((2-(1H-pyrazol-4-yl)ethyl)amino)-N-((3-flurophenyl)(1-methyl-1H-imidazol-2-yl)methyl)-N,5,6-trimethylpyrimidine-2-carboxamide]
AC1.4 Human (human NAMPT): 0.0235 µM
EC50 (human NAMPT): 449 nM
SY5Y (human) NAD Cell Dox AC0.3 (endogenous NAMPT): 2.68 µM
EC50 (endogenous NAMPT): 1760 nM

Cc1nc(C(=O)N2CC(O)(c3ccccc3)C2)nc(NCCc2cn[nH]c2)c1C [Compound 22, (4-((2-(1H-pyrazol-4-yl)ethyl)amino)-5,6-dimethylpyrimidin-2-yl)(3-hydroxy-3-phenylazetidin-1-yl)methanone]
AC1.4 Human (human NAMPT): 1.956 µM
EC50 (human NAMPT): 12800 nM
SY5Y (human) NAD Cell Dox AC0.3 (endogenous NAMPT): 7.15 µM
EC50 (endogenous NAMPT): 8840 nM

C[C@@H](NC(=O)c1cc(Br)cc(NCCc2cn[nH]c2)n1)c1cccc(F)n1 [Compound 151, (R)-6-((2-(1H-pyrazol-4-yl)ethyl)amino)-4-bromo-N-(1-(6-fluoropyridin-2-yl)ethyl)picolinamide]
SY5Y (human) NAD Cell Dox AC0.3 (endogenous NAMPT): 0.17 µM

Cc1nc(C(=O)N[C@H](C)c2cccc(F)n2)nc(NCCc2cn[nH]c2)c1C [Compound 4, (R)-4-((2-(1H-pyrazol-4-yl)ethyl)amino)-N-(1-(6-fluoropyridin-2-yl)ethyl)-5,6-dimethylpyrimidine-2-carboxamide]
AC1.4 Human (human NAMPT): 0.02 µM
EC50 (human NAMPT): 106 nM
SY5Y (human) NAD Cell Dox AC0.3 (endogenous NAMPT): 0.07 µM
EC50 (endogenous NAMPT): 110 nM

Cc1nc(C(=O)N[C@H](C)c2ncccc2Cl)nc(NCCc2cn[nH]c2)c1C [Compound 30, (R)-4-((2-(1H-pyrazol-4-yl)ethyl)amino)-N-(1-(3-chloropyridin-2-yl)ethyl)-5,6-dimethylpyrimidine-2-carboxamide]
AC1.4 Human (human NAMPT): 0.1725 µM
EC50 (human NAMPT): 741 nM
SY5Y (human) NAD Cell Dox AC0.3 (endogenous NAMPT): 0.88 µM
EC50 (endogenous NAMPT): 1600 nM

Cc1nc(C(=O)N[C@@H](C)c2cccc(F)c2)nc(NCCc2cn[nH]c2)c1C [Compound 10, (S)-4-((2-(1H-pyrazol-4-yl)ethyl)amino)-N-(1-(3-fluorophenyl)ethyl)-5,6-dimethylpyrimidine-2-carboxamide]
AC1.4 Human (human NAMPT): 0.046 µM
EC50 (human NAMPT): 520 nM
SY5Y (human) NAD Cell Dox AC0.3 (endogenous NAMPT): 0.2 µM
EC50 (endogenous NAMPT): 470 nM

Cc1nc(C(=O)N[C@H](C)c2ccccc2Cl)nc(NCCc2cn[nH]c2)c1C [Compound 26, (R)-4-((2-(1H-pyrazol-4-yl)ethyl)amino)-N-(1-(2-chlorophenyl)ethyl)-5,6-dimethylpyrimidine-2-carboxamide]
AC1.4 Human (human NAMPT): 0.1215 µM
EC50 (human NAMPT): 429 nM
SY5Y (human) NAD Cell Dox AC0.3 (endogenous NAMPT): 0.26 µM
EC50 (endogenous NAMPT): 720 nM

Cc1nc(C(=O)NC(C)(C)c2ccccc2)nc(NCCc2cn[nH]c2)c1C [Compound 21, 4-((2-(1H-pyrazol-4-yl)ethyl)amino)-5,6-dimethyl-N-(2-phenylpropan-2-yl)pyrimidine-2-carboxamide]
AC1.4 Human (human NAMPT): 0.0815 µM
EC50 (human NAMPT): 550 nM
SY5Y (human) NAD Cell Dox AC0.3 (endogenous NAMPT): 0.13 µM
EC50 (endogenous NAMPT): 280 nM

Cc1nc(C(=O)N[C@H](C)c2cccc(F)n2)nc(NCCc2cn[nH]c2)c1F [Compound 149, (R)-4-((2-(1H-pyrazol-4-yl)ethyl)amino)-5-fluoro-N-(1-(6-fluoropyridin-2-yl)ethyl)-6-methylpyrimidine-2-carboxamide]
AC1.4 Human (human NAMPT): 0.02 µM
SY5Y (human) NAD Cell Dox AC0.3 (endogenous NAMPT): 0.01 µM

Cc1nc(C(=O)N(C)[C@@H](C)c2ccccc2Cl)nc(NCCc2cn[nH]c2)c1C [Compound 29, (S)-4-((2-(1H-pyrazol-4-yl)ethyl)amino)-N-(1-(2-chlorophenyl)ethyl)-N,5,6-trimethylpyrimidine-2-carboxamide]
AC1.4 Human (human NAMPT): 0.1725 µM
EC50 (human NAMPT): 1870 nM

Cc1nc(C(=O)N[C@H](C)c2ccncc2)nc(NCCc2cn[nH]c2)c1C [Compound 95, (R)-4-((2-(1H-pyrazol-4-yl)ethyl)amino)-5,6-dimethyl-N-(1-(pyridin-4-yl)ethyl)pyrimidine-2-carboxamide]
AC1.4 Human (human NAMPT): 1.2975 µM
EC50 (human NAMPT): 11000 nM

Cc1nc(C(=O)N2CCN(C)CC2c2ccccc2)nc(NCCc2cn[nH]c2)c1C (centres unmarked) [Compound 44, (4-((2-(1H-pyrazol-4-yl)ethyl)amino)-5,6-dimethylpyrimidin-2-yl)(4-methyl-2-phenylpiperazin-1-yl)methanone]
AC1.4 Human (human NAMPT): 0.275 µM
EC50 (human NAMPT): 1840 nM

Cc1nc(C(=O)N2CC3(C2)C(=O)Nc2ccccc23)nc(NCCc2cn[nH]c2)c1C [Compound 142, 1-(4-((2-(1H-pyrazol-4-yl)ethyl)amino)-5,6-dimethylpyrimidine-2-carbonyl)spiro[azetidine-3,3′-indolin]-2′-one]
AC1.4 Human (human NAMPT): 4.3845 µM
EC50 (human NAMPT): 31800 nM
